Source: patent US20080242663A1, “NOVEL PYRIMIDINE DERIVATIVES 698” (ASTRAZENECA AB, priority 2007, published 2008)

Target: T1, recombinant EphB4 (Homo sapiens, UniProt P54760)
T1 construct: amino acids 563-987; Swiss-Prot Acc; No. P54760; purchased ProQinase GmbH 0178-0000-3
T1 sequence (P54760 563-987): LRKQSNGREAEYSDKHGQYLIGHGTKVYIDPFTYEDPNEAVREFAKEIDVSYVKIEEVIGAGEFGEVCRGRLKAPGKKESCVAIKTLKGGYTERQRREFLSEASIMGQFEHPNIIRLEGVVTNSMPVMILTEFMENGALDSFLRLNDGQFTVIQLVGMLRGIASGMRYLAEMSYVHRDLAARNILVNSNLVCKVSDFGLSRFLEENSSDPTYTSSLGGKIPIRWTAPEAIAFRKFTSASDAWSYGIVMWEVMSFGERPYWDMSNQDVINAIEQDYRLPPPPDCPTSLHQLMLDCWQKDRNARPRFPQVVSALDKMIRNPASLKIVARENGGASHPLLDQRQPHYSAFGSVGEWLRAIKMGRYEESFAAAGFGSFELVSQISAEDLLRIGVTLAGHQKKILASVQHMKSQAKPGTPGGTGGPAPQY
Assay: In vitro EphB4 enzyme assay (Alphascreen)
Type: biochemical
Procedure: This assay detects inhibitors of EphB4-mediated phosphorylation of a polypeptide substrate using Alphascreen™ luminescence detection technology. Briefly, recombinant EphB4 was incubated with a biotinylated-polypeptide substrate (biotin-poly-GAT) in presence of magnesium-ATP. The reaction was stopped by addition of EDTA, together with streptavidin-coated donor beads which bind the biotin-substrate containing any phosphorylated tyrosine residues. Anti-phosphotyrosine antibodies present on acceptor beads bind to phosphorylated substrate, thus bringing the donor & acceptor beads into close proximity. Subsequent excitation of the donor beads at 680 nm generated singlet oxygen species that interact with a chemiluminescer on the acceptor beads, leading to light emission at 520-620 nm. The signal intensity is directly proportional to the level of substrate phosphorylation and thus inhibition is measured by a decrease in signal.
Assay plates were then incubated at room temperature for 1 hr. […] The plates were sealed under natural lighting conditions, wrapped in aluminium foil and incubated in the dark for a further 20 hrs.
The resulting assay signal was determined on the Perkin Elmer EnVision plate reader. The minimum value was subtracted from all values, and the signal plotted against compound concentration to generate IC50 data.

Row | Compound | IC50 [nM]
1 | CN(c1ccnc(Nc2cc(N3CCOCC3)cc(N3CCOCC3)c2)n1)c1ccc(F)c(Cl)c1F [Example 2.1, N′-(3-chloro-2,4-difluoro-phenyl)-N-(3,5-dimorpholin-4-ylphenyl)-N′-methyl-pyrimidine-2,4-diamine] | 829
2 | Cc1ccc(CO)cc1N(C)c1ccnc(Nc2cc(OCC3CC3)cc(N3CCOCC3)c2)n1 [Example 17.4] | 1090
3 | COCCOc1cc(Nc2nccc(N(C)c3ccc(F)c(Cl)c3F)n2)cc(N2CCOCC2)c1 [Example 2.9, N′-(3-chloro-2,4-difluoro-phenyl)-N-[3-(2-methoxyethoxy)-5-morpholin-4-yl-phenyl]-N′-methyl-pyrimidine-2,4-diamine] | 781
4 | COc1ccc(NC(C)=O)c(N(C)c2ccnc(Nc3cc(N4CCOCC4)cc(N4CCOCC4)c3)n2)c1 [Example 13.1, N-[2-[[2-[(3,5-dimorpholin-4-ylphenyl)amino]pyrimidin-4-yl]-methyl-amino]-4-methoxy-phenyl]acetamide] | 470
5 | Cc1ccc(CO)cc1N(C)c1ccnc(Nc2cc(CO)cc(N3CCOCC3)c2)n1 [Example 7.13, [3-[[4-[[5-(hydroxymethyl)-2-methyl-phenyl]-methyl-amino]pyrimidin-2-yl]amino]-5-morpholin-4-yl-phenyl]methanol] | 32.6
6 | Cc1ccc(CO)cc1N(C)c1ccnc(Nc2cc(C(=O)N(C)C)cc(N3CCOCC3)c2)n1 [Example 7.11, 3-[[4-[[5-(hydroxymethyl)-2-methyl-phenyl]-methyl-amino]pyrimidin-2-yl]amino]-N,N-dimethyl-5-morpholin-4-yl-benzamide] | 60.1
7 | CN(c1ccnc(Nc2cc(N3CCOCC3)cc(N3CCOCC3)c2)n1)c1cc(F)ccc1F [Example 15.8, N′-(2,5-difluorophenyl)-N-(3,5-dimorpholin-4-ylphenyl)-N′-methyl-pyrimidine-2,4-diamine] | 338
8 | COc1ccc(C)c(N(C)c2ccnc(Nc3cc(N4CCOCC4)cc(N4CCN(C)CC4)c3)n2)c1 [Example 12.4, N′-(5-methoxy-2-methyl-phenyl)-N′-methyl-N-[3-(4-methylpiperazin-1-yl)-5-morpholin-4-yl-phenyl]pyrimidine-2,4-diamine] | 171
9 | Cc1ccc(CO)cc1N(C)c1ccnc(Nc2cc(N3CCOCC3)cc(N3CC[C@H](O)C3)c2)n1 [Example 7.9, (3S)-1-[3-[[4-[[5-(hydroxymethyl)-2-methyl-phenyl]-methyl-amino]pyrimidin-2-yl]amino]-5-morpholin-4-yl-phenyl]pyrrolidin-3-ol] | 151
10 | COc1ccc(C)cc1N(C)c1ccnc(Nc2cc(N3CCOCC3)cc(N3CCOCC3)c2)n1 [Example 15.13, N-(3,5-dimorpholin-4-ylphenyl)-N′-(2-methoxy-5-methyl-phenyl)-N′-methyl-pyrimidine-2,4-diamine] | 722
11 | COc1ccc(N(C)c2ccnc(Nc3cc(N4CCOCC4)cc(N4CCOCC4)c3)n2)cc1OC [Example 15.3, N′-(3,4-dimethoxyphenyl)-N-(3,5-dimorpholin-4-ylphenyl)-N′-methyl-pyrimidine-2,4-diamine] | 1000
12 | CN(c1ccnc(Nc2cc(N3CCOCC3)cc(N3CCSCC3)c2)n1)c1ccc(F)c(Cl)c1F [Example 1, N′-(3-chloro-2,4-difluoro-phenyl)-N′-methyl-N-(3-morpholin-4-yl-5-thiomorpholin-4-yl-phenyl)pyrimidine-2,4-diamine] | 763
13 | CN(c1ccnc(Nc2cc(N3CCOCC3)cc(N3CCOCC3)c2)n1)c1ccccc1F [Example 10.16, N-(3,5-dimorpholin-4-ylphenyl)-N′-(2-fluorophenyl)-N′-methyl-pyrimidine-2,4-diamine] | 237
14 | CN(C)C(=O)c1cc(Nc2nccc(N(C)c3ccc(F)c(Cl)c3F)n2)cc(N2CCOCC2)c1 [Example 2.8, 3-[[4-[(3-chloro-2,4-difluoro-phenyl)-methyl-amino]pyrimidin-2-yl]amino]-N,N-dimethyl-5-morpholin-4-yl-benzamide] | 335
15 | Cc1ccc(CO)cc1N(C)c1ccnc(Nc2cc(N3CCOCC3)cc(N3CCOC[C@@H]3C)c2)n1 [Example 7.17, (S)-(4-methyl-3-(methyl(2-(3-(3-methylmorpholino)-5-morpholinophenyl-amino)pyrimidin-4-yl)amino)phenyl)methanol] | 3.13
16 | Cc1ccc(CO)cc1N(C)c1ccnc(Nc2cc(OCC(C)C)cc(N3CCOCC3)c2)n1 [Example 17.3, [4-methyl-3-[methyl-[2-[[3-(2-methylpropoxy)-5-morpholin-4-yl-phenyl]amino]pyrimidin-4-yl]amino]phenyl]methanol] | 1910
17 | COc1cc(N(C)c2ccnc(Nc3cc(N4CCOCC4)cc(N4CCOCC4)c3)n2)ccc1C [Example 15.10, N-(3,5-dimorpholin-4-ylphenyl)-N′-(3-methoxy-4-methyl-phenyl)-N′-methyl-pyrimidine-2,4-diamine] | 7730
18 | COc1cc(OC)cc(N(C)c2ccnc(Nc3cc(N4CCOCC4)cc(N4CCOCC4)c3)n2)c1 [Example 15.5, N′-(3,5-dimethoxyphenyl)-N-(3,5-dimorpholin-4-ylphenyl)-N′-methyl-pyrimidine-2,4-diamine] | 1120
19 | COc1cccc(N(c2ccnc(Nc3cc(N4CCOCC4)cc(N4CCOCC4)c3)n2)C(C)C)c1 [Example 20, N2-(3,5-dimorpholinophenyl)-N4-isopropyl-N4-(3-methoxyphenyl)pyrimidine-2,4-diamine] | 912

The remaining lines, values ahead:

Row | IC50 [nM] | Compound
20 | 6.39 | CN(c1ccnc(Nc2cc(N3CCOCC3)cc(N3CCOCC3)c2)n1)c1cc(Cl)ccc1CO [Example 25.8, (4-chloro-2-((2-(3,5-dimorpholinophenylamino)pyrimidin-4-yl)(methyl)amino)phenyl)methanol]
21 | 127 | CC(=O)c1ccc(C)c(N(C)c2ccnc(Nc3cc(N4CCOCC4)cc(N4CCOCC4)c3)n2)c1 [Example 25.5, 1-(3-((2-(3,5-dimorpholinophenylamino)pyrimidin-4-yl)(methyl)amino)-4-methylphenyl)ethanone]
22 | 62.3 | Cc1ccc(CO)cc1N(C)c1ccnc(Nc2cc(C(=O)N3CCCC3)cc(N3CCOCC3)c2)n1 [Example 18.2]
23 | 181 | C[C@H](O)CN(C)C(=O)c1cc(Nc2nccc(N(C)c3cccc(Cl)c3)n2)cc(N2CCOCC2)c1 [Example 19.5, 3-[[4-[(3-chlorophenyl)-methyl-amino]pyrimidin-2-yl]amino]-N-[(2S)-2-hydroxypropyl]-N-methyl-5-morpholin-4-yl-benzamide]
24 | 1100 | COCC(C)NC(=O)c1cc(Nc2nccc(N(C)c3cccc(Cl)c3)n2)cc(N2CCOCC2)c1 (centres unmarked) [Example 19.15, 3-[[4-[(3-chlorophenyl)-methyl-amino]pyrimidin-2-yl]amino]-N-(1-methoxypropan-2-yl)-5-morpholin-4-yl-benzamide]
25 | 246 | Cc1ccc(CO)cc1N(C)c1ccnc(Nc2cc(C(=O)NCC(C)C)cc(N3CCOCC3)c2)n1 [Example 18.3, 3-[[4-[[5-(hydroxymethyl)-2-methyl-phenyl]-methyl-amino]pyrimidin-2-yl]amino]-N-(2-methylpropyl)-5-morpholin-4-yl-benzamide]
26 | 295 | CN(CCCO)C(=O)c1cc(Nc2nccc(N(C)c3cccc(Cl)c3)n2)cc(N2CCOCC2)c1 [Example 19.4, 3-[[4-[(3-chlorophenyl)-methyl-amino]pyrimidin-2-yl]amino]-N-(3-hydroxypropyl)-N-methyl-5-morpholin-4-yl-benzamide]
